US10570179B2, “Substituted urea depsipeptide analogs as activators of the CLPP endopeptidase” (priority 2016, dated 2020)
Numbered stars: 1 amine (or outer) side, 2 acyl side, 3 side chain; on linkers, the order of the positions; unused ones are H or OH. Bridge positions count the residues as written; N and C are the ends. Square brackets hold non-standard residues; d marks the D form. Peptide text beside a SMILES is read from it. * marks the point of attachment. Piperazine(2S-CO,4-Me) = CN1CCN[C@H](C(=O)O)C1; Phe(3-Me) = Cc1cccc(C[C@H](N)C(=O)O)c1; Pro(4S-Me) = C[C@@H]1CN[C@H](C(=O)O)C1; X4 = O=C1CN([*:1])[C@H](C(=O)[*:2])CN1; NH(4-Cl-2-F-phenyl) = Fc1cc(Cl)ccc1N*; Pro(4R-Me) = C[C@H]1CN[C@H](C(=O)O)C1; Hyp = O=C(O)[C@@H]1C[C@@H](O)CN1; NH(4-Et-phenyl) = CCc1ccc(N*)cc1; NH(4-Me-phenyl) = Cc1ccc(N*)cc1; aThr = C[C@H](O)[C@H](N)C(=O)O; Pip = O=C(O)[C@@H]1CCCCN1; X3 = c1cc2c(cc1N*)OCCO2; CO = O=C([*:1])[*:2]

What was measured:
[1] = Plasma protein binding, rapid equilibrium dialysis; format: in vitro ADME, mouse
Method: This assay determines plasma protein binding of a drug/compound and free drug concentration in plasma using rapid equilibrium dialysis, which allow the aqueous component of plasma containing the free drug/compound through a dialysis membrane (MWCO˜8,000).
Solutions were prepared at 10 mM in DMSO. Dulbecco's phosphate buffered saline (DPBS; pH 7.4) was obtained from Invitrogen (Carlsbad, Calif.). Single-Use RED (rapid equilibrium dialysis) device was obtained from Thermo scientific (Rockford, Ill.). Human plasma was obtained from Innovative Research INC (Novi, Michigan, Ill).
Sample preparation for plasma protein binding was modified from Waters' method. (Waters et al. (2008) J. Pharm. Sci. 97(10): 4586-95). The Teflon base plate with the RED inserts (MWCO 8 K) were allowed to use without any pre-condition the membrane inserts. Human plasma was thawed and centrifuged at 1000 rpm for 2 min to remove any particulates. Each compound was prepared at 10 μM in human plasma. This was done by adding 1 μL, of drug solution (10 mM in DMSO) to 1000 μL, of human plasma (0.1% DMSO). Spiked plasma solutions (300 μL) were placed into the sample chamber (indicated by the red ring) and 500 μL, of DPBS into the adjacent chamber. The plate was sealed and incubated at 37° C. on an orbital shaker (100 rpm) for 4 hours. After incubation, the seal was removed from the RED plate and the volume of the insert confirmed—little to no volume change occurred. Aliquots (50 μL) were removed from each side of the insert and dispensed into a 96-well deep plate. An equal volume of blank plasma or DPBS was added to the required wells to create analytically identical sample matrices (matrix matching). To each sample 200 μL, of ACN containing 4 μg/mL warfarin IS was added. All of the plates were sealed and mixed well at 600 rpm for 10 min and were centrifuged at 4000 rpm for 20 min. The supernatants (120 μL) were transferred to analytical plates for analysis by LCMS. Conditions for Waters ACQUITY-UPLC-MS-UV system were described separately. The test compound concentrations were quantified in both buffer and plasma chambers via peak areas relative to the internal standard. The percentage of the test compound bound to plasma was calculated on following equations: % Free=(Concentration buffer chamber/concentration plasma chamber)×100% and % Bound=100%-% Free.

[2] = Microsomal metabolic stability; format: in vitro ADME, human
Method: Compounds were initially prepared by dissolving them into DMSO at a final concentration of 10 mM. NADPH regenerating solutions A and B and mouse liver microsomes (CD-1) were obtained from BD Gentest (Woburn, Mass.). Ninety-six well deep well plates were obtained from MidWest Scientific Inc (Valley Park, Mo.).
Sample preparation for microsomal stability was modified from methods of Di, L., et al., Int J Pharm. 2005 Jun. 13; 297(1-2):110-9. A set of incubation times of 0, 15, 30, 60, 120, and 240 minutes were used. Mouse liver microsomal solutions were prepared by adding 58 μL of concentrated human or mouse liver microsomes (20 mg/mL protein concentration) to 1.756 mL of 0.1 M potassium phosphate buffer (pH 7.4) and 5 μL of 0.5 M EDTA to make a 0.6381 mg/mL (protein) microsomal solution. NADPH regenerating agent contained 113 μL of NADPH A, 23 μL of NADPH B, and 315 μL of 0.1 M potassium phosphate buffer (pH 7.4). The diluted test compound solutions (2 μL) were each added directly to a 1.79 mL of liver microsomal solution. This solution was mixed and 90 μL was transferred to 6 time points plates (each in triplicate wells). For the time 0 plate, 225 μL of cold acetonitrile with internal standard ([…] warfarin) was added to each well, followed by addition of NADPH regenerating agent (22.5 μL) and no incubation. For other five time points' plate, NADPH regenerating agent (22.5 μL) was added to each well to initiate the reaction. The plates were incubated at 37° C. for the required time, followed by quenching of the reaction by adding 225 μL of cold acetonitrile with internal standard (4 μg/ml warfarin). All of the plates were sealed and mixed well at 600 rpm for 10 minutes followed by centrifugation at 4000 rpm for 20 minutes. The supernatants (120 μL) were transferred to analytical plates for analysis by LCMS. LCMS conditions were described in the materials and instrumentation section above. The metabolic stability is evaluated via the half-life from least-squares fit of the multiple time points based on first-order kinetics.

[3] = plasma binding, % Bound, mouse plasma
[4] = microsomal metabolic stability half-life, human liver microsomes

SMILES | Mouse ([1]; mouse, 4 h, 10 μM, pH 7.4) [%] | Human ([2]; human, pH 7.4) | Mouse [1, 3] [%] | Human [2, 4] [h]
CCc1ccc(NC(=O)N[C@@H](Cc2cccc(C)c2)C(=O)N[C@@H]2C(=O)N3C[C@H](O)C[C@H]3C(=O)N3CCCC[C@H]3C(=O)N[C@@H](C)C(=O)N3C[C@H](C)C[C@H]3C(=O)O[C@H]2C)cc1 [Compound 25, (S)-2-(3-(4-ETHYLPHENYL)UREIDO)-N-((2R,6S,8AS,14AS,16R,20S,21S,23AS)-16-HYDROXY-2,6,21-TRIMETHYL-5,8,14,19,23-PENTAOXOOCTADECAHYDRO-1H,5H,14H,19H-PYRIDO[2,1-I]DIPYRROLO[2,1-C:2′,1′-L][1]OXA[4,7,10,13]TETRAAZACYCLOHEXADECIN-20-YL)-3-(M-TOLYL)PROPANAMIDE] ({NH(4-Et-phenyl)-CO}-[Phe(3-Me)][aThr][Hyp][Pip]A[Pro(4R-Me)]; ester 2-C) | 99.5 ± 0.11 | 15.19 ± 2.47 h |  | 
Cc1cccc(C[C@H](NC(=O)Nc2ccc(Cl)cc2F)C(=O)N[C@H]2COC(=O)[C@@H]3C[C@@H](C)CN3C(=O)[C@H](C)NC(=O)[C@@H]3CCCCN3C(=O)[C@@H]3C[C@H](N)CN3C2=O)c1 [Compound 12, (S)—N-((2R,6S,8AS,14AS,16S,20S,23AS)-16-AMINO-2,6-DIMETHYL-5,8,14,19,23-PENTAOXOOCTADECAHYDRO-1H,5H,14H,19H-PYRIDO[2,1-I]DIPYRROLO[2,1-C:2′,1′-L][1]OXA[4,7,10,13]TETRAAZACYCLOHEXADECIN-20-YL)-2-(3-(4-CHLORO-2-FLUOROPHENYL)UREIDO)-3-(M-TOLYL)PROPANAMIDE] | 99.6 ± 0.0 | 3.34 ± 0.6 h |  | 
Cc1ccc(NC(=O)N[C@@H](Cc2cccc(C)c2)C(=O)N[C@@H]2C(=O)N3CCC[C@H]3C(=O)N3CCCC[C@H]3C(=O)N[C@@H](C)C(=O)N3C[C@@H](C)C[C@H]3C(=O)O[C@H]2C)cc1 [Compound 45, (S)-3-(M-TOLYL)-2-(3-(P-TOLYL)UREIDO)-N-((2S,6S,8AS,14AS,20S,21S,23AS)-2,6,21-TRIMETHYL-5,8,14,19,23-PENTAOXOOCTADECAHYDRO-1H,5H,14H,19H-PYRIDO[2,1-I]DIPYRROLO[2,1-C:2′,1′-L][1]OXA[4,7,10,13]TETRAAZACYCLOHEXADECIN-20-YL)PROPANAMIDE] ({NH(4-Me-phenyl)-CO}-[Phe(3-Me)][aThr]P[Pip]A[Pro(4S-Me)]; ester 2-C) |  |  | 92.1 ± 1.3 | 2.77 ± 0.3
Cc1cccc(C[C@H](NC(=O)Nc2ccc(Cl)cc2F)C(=O)N[C@@H]2C(=O)N3C[C@H](O)C[C@H]3C(=O)N3CCN(C)C[C@H]3C(=O)N[C@@H](C)C(=O)N3C[C@H](C)C[C@H]3C(=O)O[C@H]2C)c1 [Compound 31, (S)-2-(3-(4-CHLORO-2-FLUOROPHENYL)UREIDO)-N-((6AS,8R,12S,13S,15AS,17R,21S,23AS)-8-HYDROXY-2,13,17,21-TETRAMETHYL-6,11,15,20,23-PENTAOXOOCTADECAHYDRO-2H,6H,11H,15H-PYRAZINO[2,1-I]DIPYRROLO[2,1-C:2′,1′-L][1]OXA[4,7,10,13]TETRAAZACYCLOHEXADECIN-12-YL)-3-(M-TOLYL)PROPANAMIDE] ({NH(4-Cl-2-F-phenyl)-CO}-[Phe(3-Me)][aThr][Hyp][Piperazine(2S-CO,4-Me)]A[Pro(4R-Me)]; ester 2-C) | 96.9 ± 6.9 | 3.87 ± .875 h |  | 
Cc1ccc(NC(=O)N[C@@H](Cc2cccc(C)c2)C(=O)N[C@H]2COC(=O)[C@@H]3C[C@H](C)CN3C(=O)[C@H](C)NC(=O)[C@@H]3CCCCN3C(=O)[C@@H]3CCCN3C2=O)cc1 (stereo in doubt) [Compound 43, (S)—N-((2S,6S,8AS,14AS,20S,23AS)-2,6-DIMETHYL-5,8,14,19,23-PENTAOXOOCTADECAHYDRO-1H,5H,14H,19H-PYRIDO[2,1-I]DIPYRROLO[2,1-C:2′,1′-L][1]OXA[4,7,10,13]TETRAAZACYCLOHEXADECIN-20-YL)-3-(M-TOLYL)-2-(3-(P-TOLYL)UREIDO)PROPANAMIDE] |  |  | 61.7 ± 1.6 | 1.36 ± 0.14
Cc1cccc(C[C@H](NC(=O)Nc2ccc(Cl)cc2F)C(=O)N[C@H]2COC(=O)[C@@H]3C[C@@H](C)CN3C(=O)[C@H](C)NC(=O)[C@@H]3CN(C)CCN3C(=O)[C@@H]3CCCN3C2=O)c1 [Compound 13, (S)-2-(3-(4-CHLORO-2-FLUOROPHENYL)UREIDO)-3-(M-TOLYL)-N-((6AS,12S,15AS,17R,21S,23AS)-2,17,21-TRIMETHYL-6,11,15,20,23-PENTAOXOOCTADECAHYDRO-2H,6H,11H,15H-PYRAZINO[2,1-I]DIPYRROLO[2,1-C:2′,1′-L][1]OXA[4,7,10,13]TETRAAZACYCLOHEXADECIN-12-YL)PROPANAMIDE] ({NH(4-Cl-2-F-phenyl)-CO}-[Phe(3-Me)]SP[Piperazine(2S-CO,4-Me)]A[Pro(4R-Me)]; ester 2-C) | 97.5 ± 0.3 | 0.38 ± 0.04 h |  | 
Cc1cccc(C[C@H](NC(=O)Nc2ccc3c(c2)OCCO3)C(=O)N[C@@H]2C(=O)N3CCC[C@H]3C(=O)N3CCCC[C@H]3C(=O)N[C@@H](C)C(=O)N3C[C@H](C)C[C@H]3C(=O)O[C@H]2C)c1 [Compound 21, (S)-2-(3-(2,3-DIHYDROBENZO[B][1,4]DIOXIN-6-YL)UREIDO)-3-(M-TOLYL)-N-((2R,6S,8AS,14AS,20S,21S,23AS)-2,6,21-TRIMETHYL-5,8,14,19,23-PENTAOXOOCTADECAHYDRO-1H,5H,14H,19H-PYRIDO[2,1-I]DIPYRROLO[2,1-C:2′,1′-L][1]OXA[4,7,10,13]TETRAAZACYCLOHEXADECIN-20-YL)PROPANAMIDE] ({X3-CO}-[Phe(3-Me)][aThr]P[Pip]A[Pro(4R-Me)]; ester 2-C) | 99.2 ± 0.1 | 4.49 ± 0.68 h |  | 
Cc1ccc(NC(=O)N[C@@H](Cc2cccc(C)c2)C(=O)N[C@@H]2C(=O)N3C[C@H](O)C[C@H]3C(=O)N3CCCC[C@H]3C(=O)N[C@@H](C)C(=O)N3C[C@H](C)C[C@H]3C(=O)O[C@H]2C)cc1 [Compound 26, (S)—N-((2R,6S,8AS,14AS,16R,20S,21S,23AS)-16-HYDROXY-2,6,21-TRIMETHYL-5,8,14,19,23-PENTAOXOOCTADECAHYDRO-1H,5H,14H,19H-PYRIDO[2,1-I]DIPYRROLO[2,1-C:2′,1′-L][1]OXA[4,7,10,13]TETRAAZACYCLOHEXADECIN-20-YL)-3-(M-TOLYL)-2-(3-(P-TOLYL)UREIDO)PROPANAMIDE] ({NH(4-Me-phenyl)-CO}-[Phe(3-Me)][aThr][Hyp][Pip]A[Pro(4R-Me)]; ester 2-C) |  |  | 99.1 ± 0.15 | 2.66 ± 0.3
Cc1cccc(C[C@H](NC(=O)Nc2ccc(Cl)cc2F)C(=O)N[C@@H]2C(=O)N3CCC[C@H]3C(=O)N3CC(=O)NC[C@H]3C(=O)N[C@@H](C)C(=O)N3C[C@H](C)C[C@H]3C(=O)O[C@H]2C)c1 [Compound 20, (S)-2-(3-(4-CHLORO-2-FLUOROPHENYL)UREIDO)-3-(M-TOLYL)-N-((6AS,12S,13S,15AS,17R,21S,23AS)-13,17,21-TRIMETHYL-3,6,11,15,20,23-HEXAOXOOCTADECAHYDRO-2H,6H,11H,15H-PYRAZINO[2,1-I]DIPYRROLO[2,1-C:2′,1′-L][1]OXA[4,7,10,13]TETRAAZACYCLOHEXADECIN-12-YL)PROPANAMIDE] ({NH(4-Cl-2-F-phenyl)-CO}-[Phe(3-Me)][aThr]P[X4]A[Pro(4R-Me)]; ester 2-C) | 98.7 ± 0.1 | 1.30 ± 0.09 h |  | 
